Tests used:
Experiment in all cases: Test B pre-/postemergence
Assay type in all cases: in vivo
Design in all cases: key: 0 is no effect; 10 is complete control
corn (Zea mays) = test system: corn (Zea mays)
Summary of the method: (§1)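 Scored visually 0 (none) to 10 (complete control) against untreated plants after twelve to sixteen greenhouse days. Test chemicals, formulated in surfactant-containing non-phytotoxic solvent, applied to soil after planting and, separately, onto 1- to 4-leaf (2–18 cm) plants.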

[1] = test system: bedstraw (Galium aparine)
Summary of the method: as §1

soybean (Glycine max) = test system: soybean (Glycine max)
Summary of the method: as §1

[2] = test system: cocklebur (Xanthium strumarium)
Summary of the method: as §1

[3] = test system: momingglory (Ipomoea hederacea)
Summary of the method: as §1

[4] = test system: sugar beet (Beta vulgaris)
Summary of the method: as §1

[5] = test system: giant foxtail (Setaria faberii)
Summary of the method: as §1

[6] = test system: pigweed (Amaranthus retroflexus)
Summary of the method: as §1

[7] = test system: crabgrass (Digitaria sanguinalis)
Summary of the method: as §1

[8] = test system: wheat (Triticum aestivum)
Summary of the method: as §1

rape (Brassica napus) = test system: rape (Brassica napus)
Summary of the method: as §1

[9] = test system: broadleaf signalgrass (Brachiaria decumbens)
Summary of the method: as §1

[10] = test system: velvetleaf (Abutilon theophrasti)
Summary of the method: as §1

[11] = test system: purple nutsedge (Cyperus rotundus)
Summary of the method: as §1

Cc1cnc(-c2ccc(C(F)(F)F)cc2)nc1Cn1nc(C(F)(F)F)cc1C [Compound 13]
Plant response rating, Corn (corn (Zea mays); Rate 62 g/ha, Postemergence): 3 | Corn plant response rating (corn (Zea mays); Rate 62 g/ha, Preemergence): 1 | Plant response rating, Corn (corn (Zea mays); Rate 125 g/ha, Postemergence): 3 | Corn plant response rating (corn (Zea mays); Rate 125 g/ha, Preemergence): 1 | Plant response rating, Corn (corn (Zea mays); Rate 250 g/ha, Postemergence): 3 | Plant response rating, Corn (corn (Zea mays); Rate 250 g/ha, Preemergence): 1 | Plant response rating, Corn (corn (Zea mays); Rate 500 g/ha, Postemergence): 4 | Plant response rating, Corn (corn (Zea mays); Rate 500 g/ha, Preemergence): 2 | Plant response rating, Bedstraw ([1]; Rate 62 g/ha, Postemergence): 7 | Bedstraw plant response rating ([1]; Rate 62 g/ha, Preemergence): 1 | Plant response rating, Bedstraw ([1]; Rate 125 g/ha, Postemergence): 9 | Bedstraw plant response rating ([1]; Rate 125 g/ha, Preemergence): 2 | Plant response rating, Bedstraw ([1]; Rate 250 g/ha, Postemergence): 10 | Plant response rating, Bedstraw ([1]; Rate 250 g/ha, Preemergence): 5 | Plant response rating, Bedstraw ([1]; Rate 500 g/ha, Postemergence): 10 | Plant response rating, Bedstraw ([1]; Rate 500 g/ha, Preemergence): 6 | Plant response rating, Soybean (soybean (Glycine max); Rate 62 g/ha, Postemergence): 4 | Soybean plant response rating (soybean (Glycine max); Rate 62 g/ha, Preemergence): 1 | Plant response rating, Soybean (soybean (Glycine max); Rate 125 g/ha, Postemergence): 5 | Soybean plant response rating (soybean (Glycine max); Rate 125 g/ha, Preemergence): 1 | Plant response rating, Soybean (soybean (Glycine max); Rate 250 g/ha, Postemergence): 5 | Plant response rating, Soybean (soybean (Glycine max); Rate 250 g/ha, Preemergence): 3 | Plant response rating, Soybean (soybean (Glycine max); Rate 500 g/ha, Postemergence): 5 | Plant response rating, Soybean (soybean (Glycine max); Rate 500 g/ha, Preemergence): 3 | Plant response rating, Cocklebur ([2]; Rate 62 g/ha, Postemergence): 6 | Cocklebur plant response rating ([2]; Rate 62 g/ha, Preemergence): 0 | Plant response rating, Cocklebur ([2]; Rate 125 g/ha, Postemergence): 9 | Plant response rating, Cocklebur ([2]; Rate 250 g/ha, Postemergence): 9 | Plant response rating, Cocklebur ([2]; Rate 250 g/ha, Preemergence): 5 | Plant response rating, Cocklebur ([2]; Rate 500 g/ha, Postemergence): 9 | Plant response rating, Cocklebur ([2]; Rate 500 g/ha, Preemergence): 7 | Plant response rating, Morningglory ([3]; Rate 62 g/ha, Postemergence): 7 | Morningglory plant response rating ([3]; Rate 62 g/ha, Preemergence): 9 | Plant response rating, Morningglory ([3]; Rate 125 g/ha, Postemergence): 7 | Morningglory plant response rating ([3]; Rate 125 g/ha, Preemergence): 10 | Plant response rating, Morningglory ([3]; Rate 250 g/ha, Postemergence): 9 | Plant response rating, Morningglory ([3]; Rate 250 g/ha, Preemergence): 9 | Plant response rating, Morningglory ([3]; Rate 500 g/ha, Postemergence): 9 | Plant response rating, Morningglory ([3]; Rate 500 g/ha, Preemergence): 10 | Plant response rating, Sugarbeets ([4]; Rate 62 g/ha, Postemergence): 9 | Sugarbeets plant response rating ([4]; Rate 62 g/ha, Preemergence): 9 | Plant response rating, Sugarbeets ([4]; Rate 125 g/ha, Postemergence): 10 | Sugarbeets plant response rating ([4]; Rate 125 g/ha, Preemergence): 10 | Plant response rating, Sugarbeets ([4]; Rate 250 g/ha, Postemergence): 10 | Plant response rating, Sugarbeets ([4]; Rate 250 g/ha, Preemergence): 10 | Plant response rating, Sugarbeets ([4]; Rate 500 g/ha, Postemergence): 10 | Plant response rating, Sugarbeets ([4]; Rate 500 g/ha, Preemergence): 10 | Plant response rating, Giant foxtail ([5]; Rate 62 g/ha, Postemergence): 2 | Giant foxtail plant response rating ([5]; Rate 62 g/ha, Preemergence): 9 | Plant response rating, Giant foxtail ([5]; Rate 125 g/ha, Postemergence): 3 | Giant foxtail plant response rating ([5]; Rate 125 g/ha, Preemergence): 10 | Plant response rating, Giant foxtail ([5]; Rate 250 g/ha, Postemergence): 4 | Plant response rating, Giant foxtail ([5]; Rate 250 g/ha, Preemergence): 10 | Plant response rating, Giant foxtail ([5]; Rate 500 g/ha, Postemergence): 5 | Plant response rating, Giant foxtail ([5]; Rate 500 g/ha, Preemergence): 10 | Plant response rating, Redroot pigweed ([6]; Rate 62 g/ha, Postemergence): 9 | Redroot pigweed plant response rating ([6]; Rate 62 g/ha, Preemergence): 7 | Plant response rating, Redroot pigweed ([6]; Rate 125 g/ha, Postemergence): 9 | Redroot pigweed plant response rating ([6]; Rate 125 g/ha, Preemergence): 9 | Plant response rating, Redroot pigweed ([6]; Rate 250 g/ha, Postemergence): 10 | Plant response rating, Redroot pigweed ([6]; Rate 250 g/ha, Preemergence): 9 | Plant response rating, Redroot pigweed ([6]; Rate 500 g/ha, Postemergence): 10 | Plant response rating, Redroot pigweed ([6]; Rate 500 g/ha, Preemergence): 9 | Plant response rating, Crabgrass ([7]; Rate 62 g/ha, Postemergence): 3 | Crabgrass plant response rating ([7]; Rate 62 g/ha, Preemergence): 9 | Plant response rating, Crabgrass ([7]; Rate 125 g/ha, Postemergence): 4 | Crabgrass plant response rating ([7]; Rate 125 g/ha, Preemergence): 10 | Plant response rating, Crabgrass ([7]; Rate 250 g/ha, Postemergence): 7 | Plant response rating, Crabgrass ([7]; Rate 250 g/ha, Preemergence): 10 | Plant response rating, Crabgrass ([7]; Rate 500 g/ha, Postemergence): 9 | Plant response rating, Crabgrass ([7]; Rate 500 g/ha, Preemergence): 10 | Plant response rating, Wheat ([8]; Rate 62 g/ha, Postemergence): 2 | Wheat plant response rating ([8]; Rate 62 g/ha, Preemergence): 0 | Plant response rating, Wheat ([8]; Rate 125 g/ha, Postemergence): 3 | Wheat plant response rating ([8]; Rate 125 g/ha, Preemergence): 0 | Plant response rating, Wheat ([8]; Rate 250 g/ha, Postemergence): 3 | Plant response rating, Wheat ([8]; Rate 250 g/ha, Preemergence): 0 | Plant response rating, Wheat ([8]; Rate 500 g/ha, Postemergence): 4 | Plant response rating, Wheat ([8]; Rate 500 g/ha, Preemergence): 1 | Plant response rating, Rape (rape (Brassica napus); Rate 62 g/ha, Postemergence): 6 | Rape plant response rating (rape (Brassica napus); Rate 62 g/ha, Preemergence): 5 | Plant response rating, Rape (rape (Brassica napus); Rate 125 g/ha, Postemergence): 8 | Rape plant response rating (rape (Brassica napus); Rate 125 g/ha, Preemergence): 6 | Plant response rating, Rape (rape (Brassica napus); Rate 250 g/ha, Postemergence): 9 | Plant response rating, Rape (rape (Brassica napus); Rate 250 g/ha, Preemergence): 9 | Plant response rating, Rape (rape (Brassica napus); Rate 500 g/ha, Postemergence): 9 | Plant response rating, Rape (rape (Brassica napus); Rate 500 g/ha, Preemergence): 9 | Plant response rating, B. signalgrass ([9]; Rate 62 g/ha, Postemergence): 5 | B. signalgrass plant response rating ([9]; Rate 62 g/ha, Preemergence): 7 | Plant response rating, B. signalgrass ([9]; Rate 125 g/ha, Postemergence): 5 | B. signalgrass plant response rating ([9]; Rate 125 g/ha, Preemergence): 8 | Plant response rating, B. signalgrass ([9]; Rate 250 g/ha, Postemergence): 7 | Plant response rating, B. signalgrass ([9]; Rate 250 g/ha, Preemergence): 9 | Plant response rating, B. signalgrass ([9]; Rate 500 g/ha, Postemergence): 8 | Plant response rating, B. signalgrass ([9]; Rate 500 g/ha, Preemergence): 9 | Plant response rating, Velvetleaf ([10]; Rate 62 g/ha, Postemergence): 4 | Velvetleaf plant response rating ([10]; Rate 62 g/ha, Preemergence): 6 | Plant response rating, Velvetleaf ([10]; Rate 125 g/ha, Postemergence): 4 | Velvetleaf plant response rating ([10]; Rate 125 g/ha, Preemergence): 7 | Plant response rating, Velvetleaf ([10]; Rate 250 g/ha, Postemergence): 8 | Plant response rating, Velvetleaf ([10]; Rate 250 g/ha, Preemergence): 10 | Plant response rating, Velvetleaf ([10]; Rate 500 g/ha, Postemergence): 8 | Plant response rating, Velvetleaf ([10]; Rate 500 g/ha, Preemergence): 10 | Plant response rating, Nutsedge ([11]; Rate 62 g/ha, Postemergence): 0 | Nutsedge plant response rating ([11]; Rate 62 g/ha, Preemergence): 0 | Plant response rating, Nutsedge ([11]; Rate 125 g/ha, Postemergence): 0 | Nutsedge plant response rating ([11]; Rate 125 g/ha, Preemergence): 0 | Plant response rating, Nutsedge ([11]; Rate 250 g/ha, Postemergence): 0 | Plant response rating, Nutsedge ([11]; Rate 250 g/ha, Preemergence): 0 | Plant response rating, Nutsedge ([11]; Rate 500 g/ha, Postemergence): 0 | Plant response rating, Nutsedge ([11]; Rate 500 g/ha, Preemergence): 0

Reference: US6525001B1, “Substituted pyrimidine and pyridine herbicides” (Mid-American Commercialization Corporation, priority 1997, dated 2003)
